Results taken from US8563553B2, “Compounds and compositions as protein kinase inhibitors” (Novartis AG, priority 2009, dated 2013).
pIC50: −log10 of the molar value.

biological target: b-Raf(V600E) (Homo sapiens (Human), UniProt P15056, V600E); test: Raf/Mek Amplified Luminescence Proximity Homogeneous Assay (Alpha Screen); format: biochemical; settings: b-Raf(V600E) approximately 4 pM; biotinylated Mek, kinase dead approximately 10 nM; ATP 10 μM; pre-incubation 60 minutes; reaction 3 hours at room temperature; read-out: mut-B-RAF IC50
Sequence (P15056 whole entry V600E): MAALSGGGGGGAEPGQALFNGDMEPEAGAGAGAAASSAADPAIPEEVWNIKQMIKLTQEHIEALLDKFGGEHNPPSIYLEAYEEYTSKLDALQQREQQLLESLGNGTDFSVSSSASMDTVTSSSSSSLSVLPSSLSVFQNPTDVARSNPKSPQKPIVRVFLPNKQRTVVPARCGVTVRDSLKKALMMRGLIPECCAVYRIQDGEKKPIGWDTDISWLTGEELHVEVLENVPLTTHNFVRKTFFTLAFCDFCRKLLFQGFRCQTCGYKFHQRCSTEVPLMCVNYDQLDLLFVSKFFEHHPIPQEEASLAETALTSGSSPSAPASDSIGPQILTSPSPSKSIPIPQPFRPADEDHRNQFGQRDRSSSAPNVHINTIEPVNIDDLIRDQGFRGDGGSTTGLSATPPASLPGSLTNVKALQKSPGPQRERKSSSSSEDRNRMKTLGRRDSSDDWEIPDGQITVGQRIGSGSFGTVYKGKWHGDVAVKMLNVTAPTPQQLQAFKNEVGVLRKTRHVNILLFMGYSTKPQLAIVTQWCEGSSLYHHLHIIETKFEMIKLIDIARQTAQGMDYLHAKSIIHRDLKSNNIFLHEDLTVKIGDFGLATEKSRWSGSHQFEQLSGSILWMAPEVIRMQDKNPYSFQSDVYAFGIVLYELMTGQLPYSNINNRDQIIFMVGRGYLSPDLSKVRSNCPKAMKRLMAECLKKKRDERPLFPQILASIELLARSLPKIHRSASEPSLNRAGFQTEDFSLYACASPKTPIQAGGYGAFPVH
Outline: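 Raf pre-incubated with compound and kinase-dead biotinylated Mek (~10 nM) for 60 min, room temperature, in 50 mM Tris pH 7.5, 15 mM MgCl2, 0.01% BSA, 1 mM DTT; ATP-started reaction 1 or 3 h, EDTA stop. Phospho-MEK detected by anti-p-MEK1/2 AlphaScreen; IC50 by non-linear regression.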

Row | SMILES | pIC50
1 | CS(=O)(=O)Nc1cc(Cl)cc(-c2nc(C3CC3)[nH]c2-c2ccnc(NCCC#N)n2)c1F [Example 2A, N-(5-Chloro-3-(5-(2-(2-cyanoethylamino)pyrimidin-4-yl)-2-cyclopropyl-1H-imidazol-4-yl)-2-fluorophenyl)methanesulfonamide] | 10.10
2 | COC(=O)N[C@@H](C)CNc1nccc(-c2[nH]c(C(C)(C)C)nc2-c2cccc(NS(=O)(=O)C3CC3)c2F)n1 [Example 2B, (S)-Methyl 1-(4-(2-tert-butyl-4-(3-(cyclopropanesulfonamido)-2-fluorophenyl)-1H-imidazol-5-yl)pyrimidin-2-ylamino)propan-2-ylcarbamate] | 9.57
3 | COC(=O)N[C@@H](C)CNc1nccc(-c2[nH]c(C(C)(C)C)nc2-c2cccc(NS(C)(=O)=O)c2F)n1 [Example 2C, (S)-Methyl 1-(4-(2-tert-butyl-4-(2-fluoro-3-(methylsulfonamido)phenyl)-1H-imidazol-5-yl)pyrimidin-2-ylamino)propan-2-ylcarbamate] | 9.21
4 | COC(=O)N[C@@H](C)CNc1nccc(-c2[nH]c(C(C)(C)C)nc2-c2cccc(NS(=O)(=O)C(C)C)c2F)n1 [Example 2D] | 9.11
5 | CS(=O)(=O)Nc1cccc(-c2nc(C3CC3)[nH]c2-c2ccnc(NCCC#N)n2)c1F [Example 2E, N-(3-(5-(2-(2-Cyanoethylamino)pyrimidin-4-yl)-2-cyclopropyl-1H-imidazol-4-yl)-2-fluorophenyl)methanesulfonamide] | 8.40
6 | COC(=O)N[C@@H](C)CNc1nccc(-c2[nH]c(C3CC3)nc2-c2c(F)ccc(NS(C)(=O)=O)c2Cl)n1 [Example 2F, Methyl (2S)-1-(4-(4-(2-chloro-6-fluoro-3-(methylsulfonamido)phenyl)-2-cyclopropyl-1H-imidazol-5-yl)pyrimidin-2-ylamino)propan-2-ylcarbamate] | 8.30
7 | CS(=O)(=O)Nc1cccc(-c2nc(C3CC3)[nH]c2-c2ccnc(NCC3(C#N)CC3)n2)c1Cl [Example 2G, N-(2-Chloro-3-(5-(2-((1-cyanocyclopropyl)methylamino)pyrimidin-4-yl)-2-cyclopropyl-1H-imidazol-4-yl)phenyl)methanesulfonamide] | 7.46
8 | Nc1nccc(-c2[nH]c(C3CC3)nc2-c2cccc(NS(=O)(=O)c3c(F)cccc3F)c2Cl)n1 [Example 2H, N-(3-(5-(2-aminopyrimidin-4-yl)-2-cyclopropyl-1H-imidazol-4-yl)-2-chlorophenyl)-2,6-difluorobenzenesulfonamide] | 9.00
9 | O=S(=O)(Nc1cc(F)cc(-c2nc(C3CC3)[nH]c2-c2ccncn2)c1Cl)c1c(F)cccc1F [Example 2I, N-(2-Chloro-3-(2-cyclopropyl-5-(pyrimidin-4-yl)-1H-imidazol-4-yl)-5-fluorophenyl)-2,6-difluorobenzenesulfonamide] | 9.00
10 | CS(=O)(=O)Nc1cc(F)cc(-c2nc(C3CC3)[nH]c2-c2ccncn2)c1Cl [Example 2J, N-(2-Chloro-3-(2-cyclopropyl-5-(pyrimidin-4-yl)-1H-imidazol-4-yl)-5-fluorophenyl)methanesulfonamide] | 7.06
11 | CCCS(=O)(=O)Nc1cc(F)cc(-c2nc(C3CC3)[nH]c2-c2ccncn2)c1Cl [Example 2K, N-(2-Chloro-3-(2-cyclopropyl-5-(pyrimidin-4-yl)-1H-imidazol-4-yl)-5-fluorophenyl)propane-1-sulfonamide] | 8.40
12 | CNc1nccc(-c2[nH]c(C3CC3)nc2-c2cccc(NS(C)(=O)=O)c2F)n1 [Example 3A-2, N-(3-(2-cyclopropyl-5-(2-(methylamino)pyrimidin-4-yl)-1H-imidazol-4-yl)-2-fluorophenyl)methanesulfonamide] | 6.24
13 | C[C@H](O)CNc1nccc(-c2[nH]c(C3CC3)nc2-c2cccc(NS(C)(=O)=O)c2F)n1 [Example 3B, (S)—N-(3-(2-cyclopropyl-5-(2-(2-hydroxypropylamino)pyrimidin-4-yl)-1H-imidazol-4-yl)-2-fluorophenyl)methanesulfonamide] | 7.55
14 | CCCS(=O)(=O)Nc1cccc(-c2nc(C3CC3)[nH]c2-c2ccnc(NC[C@H](C)NC(=O)OC)n2)c1Cl [Example 4A-3, (S)-methyl 1-(4-(4-(2-chloro-3-(propylsulfonamido)phenyl)-2-cyclopropyl-1H-imidazol-5-yl)pyrimidin-2-ylamino)propan-2-ylcarbamate] | 9.89

More lines, now with the values ahead:

Row | pIC50 | SMILES
15 | 9.42 | CCCS(=O)(=O)Nc1cccc(-c2nc(C(C)(C)C)[nH]c2-c2ccnc(NC[C@H](C)NC(=O)OC)n2)c1F [Example 4B, (S)-Methyl 1-(4-(2-tert-butyl-4-(2-fluoro-3-(propylsulfonamido)phenyl)-1H-imidazol-5-yl)pyrimidin-2-ylamino)propan-2-ylcarbamate]
16 | 9.80 | CCCS(=O)(=O)Nc1cccc(-c2nc(C3CC3)[nH]c2-c2ccnc(NC[C@H](C)NC(=O)OC)n2)c1F [Example 4C, (S)-Methyl 1-(4-(2-cyclopropyl-4-(2-fluoro-3-(propylsulfonamido)phenyl)-1H-imidazol-5-yl)pyrimidin-2-ylamino)propan-2-ylcarbamate]
17 | 9.02 | COC(=O)N[C@@H](C)CNc1nccc(-c2[nH]c(C3CC3)nc2-c2cc(C)cc(NS(=O)(=O)C(C)C)c2)n1 [Example 4D, (S)-Methyl 1-(4-(2-cyclopropyl-4-(3-methyl-5-(1-methylethylsulfonamido)phenyl)-1H-imidazol-5-yl)pyrimidin-2-ylamino)propan-2-ylcarbamate]
18 | 8.97 | COC(=O)N[C@@H](C)CNc1nccc(-c2[nH]c(C(C)(C)C)nc2-c2cccc(NS(=O)(=O)CCC(F)(F)F)c2F)n1 [Example 4E, (S)-Methyl 1-(4-(2-tert-butyl-4-(2-fluoro-3-(3,3,3-trifluoropropylsulfonamido)phenyl)-1H-imidazol-5-yl)pyrimidin-2-ylamino)propan-2-ylcarbamate]
19 | 9.28 | CCCS(=O)(=O)Nc1cc(Cl)cc(-c2[nH]c(C(C)(C)C)nc2-c2ccnc(NC[C@H](C)NC(=O)OC)n2)c1F [Example 4F, (S)-Methyl 1-(4-(2-tert-butyl-5-(5-chloro-2-fluoro-3-(propylsulfonamido)phenyl)-1H-imidazol-4-yl)pyrimidin-2-ylamino)propan-2-ylcarbamate]
20 | 9.89 | CCCS(=O)(=O)Nc1cccc(-c2nc(C3CC3)[nH]c2-c2ccnc(NCCC#N)n2)c1F [Example 4G, N-(3-(5-(2-(2-Cyanoethylamino)pyrimidin-4-yl)-2-cyclopropyl-1H-imidazol-4-yl)-2-fluorophenyl)propane-1-sulfonamide]
21 | 8.70 | CCCS(=O)(=O)Nc1cccc(-c2nc(C3CC3)[nH]c2-c2ccnc(NCCC(N)=O)n2)c1F [Example 4H, 3-(4-(2-Cyclopropyl-4-(2-fluoro-3-(propylsulfonamido)phenyl)-1H-imidazol-5-yl)pyrimidin-2-ylamino)propanamide]
22 | 9.00 | CCCS(=O)(=O)Nc1cccc(-c2nc(C3CC3)[nH]c2-c2ccnc(NC[C@H](C)NC(=O)OC)n2)c1 [Example 4J, (S)-Methyl 1-(4-(2-cyclopropyl-4-(3-(propylsulfonamido)phenyl)-1H-imidazol-5-yl)pyrimidin-2-ylamino)propan-2-ylcarbamate]
23 | 8.10 | COC(=O)N[C@@H](C)CNc1nccc(-c2[nH]c(C3CC3)nc2-c2cccc(NS(C)(=O)=O)c2)n1 [Example 4K, (S)-Methyl 1-(4-(2-cyclopropyl-4-(3-(methylsulfonamido)phenyl)-1H-imidazol-5-yl)pyrimidin-2-ylamino)propan-2-ylcarbamate]
24 | 9.40 | COC(=O)N[C@@H](C)CNc1nccc(-c2[nH]c(C3CC3)nc2-c2cc(F)cc(NS(C)(=O)=O)c2Cl)n1 [Example 5A, (S)-methyl 1-(4-(4-(2-chloro-5-fluoro-3-(methylsulfonamido)phenyl)-2-cyclopropyl-1H-imidazol-5-yl)pyrimidin-2-ylamino)propan-2-ylcarbamate]
